From patent US4454136A, “Substituted benzopyranotriazoles and antiallergic use” (Beecham Group Limited, priority 1980, dated 1984)

Tested on: rat PCA
Experiment: Passive Cutaneous Anaphylaxis (PCA) in rats
Format: in vivo, Male Wistar rats
Settings: sc
Protocol: Serum containing heat-labile homocytotropic antibody was raised in rats to crystallized ovalbumin XOA by the method of Mota (I. Mota, Immunology, 7, 681, (1964)) using Bordettela pertussis vaccine as adjuvant.
Passive cutaneous anaphylaxis (PCA) was carried out by a method based on that of Ovary and Bier, (A. Ovary and O. G. Bier, Proc. Soc. Exp. Bio. Med 81, 584, (1952)) as modified by Goose and Blair. (Immunology 16, 749 (1969)).
Male Wistar rats of 250-300 g were give 0.1 ml of each of six twofold serial dilutions of pooled antiserum in 0.9% saline injected intradermally into separate sites on their shaved backs. Later (72 hours) the animals were challenged by intravenous injection of 0.3 ml of a 1% solution of ovalbumin in an isotonic solution of saline buffered with 0.05 M, pH 7.2, Sorenson Buffer (PBS), mixed with 0.2 ml of a 5% solution of Pontamine Sky Blue (6BX C.I. 24410, Raymond A. Lamb, London) in isotonic saline. The rats were killed after 20 minutes and the diameter of the blue wheals at the antibody injection sites were measured on the outer surface of the skin. The starting dilution of the serum was adjusted so that there was no response, after challenge, at the injection site of the highest dilution and a maximum response at the lowest dilutions. Typically six twofold serial dilutions of the serum from 1/4 to 1/128 were used.
Compounds were tested for their ability to reduce the diameter of the wheals at those intradermal sites which in control animals gave less than maximum response. Each dose of the compound was administered to six rats at a measured time prior to intravenous challenge with ovalbumin. Control groups of six rats were given the same volume (0.2 ml: 100 g^-1) of carrier fluid at the same time prior to the challenge.
The results were calculated as follows: % inhibition of PCA=100 (1-a/b) where a=the sum of the diameters of the wheals produced in the test animal at the sites of antibody dilutions as used in control groups and b=the mean sum of the diameters of the wheals produced in the control groups of animals at those antibody sites where at least five out of six of the animals gave less than maximum response. A typical variation in the control group of animals was SEM±6%.
*Time between administration of compound and antigen challenge.

Q: What does the source list for `Cc1c(OS(C)(=O)=O)ccc2c(=O)c3[nH]nnc3oc12` [Example 1e, 6-Mesyloxy-5-methyl-9-oxo-1H,9H-benzopyran o[2,3-d]-v-triazole]?
A: % inhibition of rat PCA (PBS with NaHCO3, 10' before antigen challenge, 5 mg/kg): 42%; % inhibition of rat PCA (PBS with NaHCO3, 10' before antigen challenge, 20 mg/kg): 57%; % inhibition of rat PCA (PBS with NaHCO3, 30' before antigen challenge, 5 mg/kg): 18%; % inhibition of rat PCA (PBS with NaHCO3, 30' before antigen challenge, 20 mg/kg): 41%

Q: What does the source list for `Cc1c(O)ccc2c(=O)c3[nH]nnc3oc12` [Example 1f, 6-Hydroxy-5-methyl-9-oxo-1H,9H-benzopyrano[2,3-d]-v-triazole]?
A: % inhibition of rat PCA (PBS with NaHCO3, 10' before antigen challenge, 10 mg/kg): 32%; % inhibition of rat PCA (PBS with NaHCO3, 30' before antigen challenge, 10 mg/kg): 19%
